Data taken from patent publication US20110275711A1, “METHOD FOR TREATING MACULAR EDEMA” (R-TECH UENO, LTD., priority 2010, published 2011).

How the values were obtained:
[1] = test system: rhVEGF induced retinal vascular leakage; experiment: Inhibition of rhVEGF induced retinal vascular leakage in rabbit model (vitreous fluorescein leakage); type: in vivo, GD79B rabbit (pigmented); settings: 50 μl test composition intravitreal just after rhVEGF 500 ng; for Fluorescein Leakage (AUC) right eye (treated), Mean: measured 48 h after rhVEGF, 1 h after sodium fluorescein i.v., n=8; for Inhibition of fluorescein leakage (vs. control): AUC ratio compared with vehicle control group; for ratio of AUC right/left, Mean ± S.D.: treated eye/untreated eye
Description: The effect of the fatty acid derivative to inhibit retinal vascular leakage in rabbit model.
Animals: GD79B rabbit (pigmented). Each group contains 8 animals.
1) 0.15 w/v % isopropyl unoprostone: formulation example 1 2) 4 w/v % triamcinolone acetonide: Kenacort® Retard (Bristol-Myers Squibb Japan, Tokyo, JP) (positive control) 3) vehicle of isopropyl unoprostone (composition comprising the ingredients of formulation example 1 except for isopropyl unoprostone) (control)
Retinal vascular leakage model animals were prepared. Recombinant human vascular endothelial cell growth factor (rhVEGF) 500 ng (in 50 μl) was injected intravitreally in the right eye of animals. Just after the injection of rhVEGE, 50 μl of test composition 1 or 2 was injected intraviterally in the right eye of the animal. The left eyes were remain untreated (no rhVEGE nor test compositions).
Forty seven (47) hours after the rhVEGF injection, 50 mg/kg of sodium fluorescein (10 w/v % in physiological saline) was injected to the animals via auricular veins. One (1) hour after the injection of sodium fluorescein, the fluorescence intensities in the vitreous body of the treated and untreated eyes were measured by using a corneal spectrophotometer. Based on the measured value, area under the curve (AUC) of the fluorescence intensity that reflects the leakage and the ratio of AUC (treated eye/untreated eye, i.e. right eye/left eye) were calculated. The AUC ratio of isopropyl unoprostone and triamcinolone acetonide administered group were compared to the AUC ratio of the control group to give the inhibition (%) of retinal vascular leakage.

macular edema = settings: package insert of Xalatan; cited from earlier work

Structure (SMILES)	Fluorescein Leakage (AUC) right eye (treated), Mean [1]	Inhibition of fluorescein leakage (vs. control) [1] [%]	ratio of AUC right/left, Mean ± S.D. [1]	macular edema as side effect (macular edema)
CCCCCCCC(=O)CC[C@@H]1[C@@H](C/C=C\CCCC(=O)OC(C)C)[C@@H](O)C[C@H]1O [isopropyl unoprostone, (+)-isopropyl (Z)-7-[(1R,2R,3R,5S)-3,5-dihydroxy-2-(3-oxodecyl)cyclopentyl]hept-5-enoate]	10998.4	60	3.43 ± 4.01	
CC1(C)O[C@@H]2C[C@H]3[C@@H]4CCC5=CC(=O)C=C[C@]5(C)[C@@]4(F)[C@@H](O)C[C@]3(C)[C@]2(C(=O)CO)O1 [triamcinolone acetonide]	3715.6	89	0.98 ± 0.44	
CC(C)OC(=O)CCC/C=C\C[C@@H]1[C@@H](CC[C@@H](O)CCc2ccccc2)[C@H](O)C[C@@H]1O [latanoprost, (+)-Isopropyl (Z)-7-[(1R,2R,3R,5S)-3,5-dihydroxy-2-[(3R)-3-hydroxy-5-phenylpentyl]cyclopentyl]-5-heptenoate]				causes macular edema as a side effect
